Reference: patent publication US8703701B2 (Indiana University Research and Technology Corporation, priority 2009, dated 2014)
Starred links: 1 amine or outer side, 2 acyl side, 3 side chain; linkers in the order of their positions; H or OH if unused. Non-standard residues stand in square brackets, D forms with d. Residues, ends and D or L forms follow the SMILES beside them. Groups on a side chain read outwards from the residue. *: point of attachment. Isobutyryl(2-imidazol-4-yl) = CC(C)(C(=O)*)c1c[nH]cn1; γGlu = O=C(O)[C@H](CCC(=O)[*:2])N[*:1]; Palmitoyl = CCCCCCCCCCCCCCCC(=O)*; Aib = CC(C)(N)C(=O)O

How the values were obtained:
[1] = target: T1, glucagon receptor (Homo sapiens, UniProt P47871); assay: cAMP induction, firefly luciferase reporter assay, glucagon receptor; type: cell-based; settings: for Activity at Glucagon Receptor % Relative Activity: compared to native glucagon
T1 construct: expressed in transfected cells; host or cells: HEK293
T1 sequence (P47871 26-477): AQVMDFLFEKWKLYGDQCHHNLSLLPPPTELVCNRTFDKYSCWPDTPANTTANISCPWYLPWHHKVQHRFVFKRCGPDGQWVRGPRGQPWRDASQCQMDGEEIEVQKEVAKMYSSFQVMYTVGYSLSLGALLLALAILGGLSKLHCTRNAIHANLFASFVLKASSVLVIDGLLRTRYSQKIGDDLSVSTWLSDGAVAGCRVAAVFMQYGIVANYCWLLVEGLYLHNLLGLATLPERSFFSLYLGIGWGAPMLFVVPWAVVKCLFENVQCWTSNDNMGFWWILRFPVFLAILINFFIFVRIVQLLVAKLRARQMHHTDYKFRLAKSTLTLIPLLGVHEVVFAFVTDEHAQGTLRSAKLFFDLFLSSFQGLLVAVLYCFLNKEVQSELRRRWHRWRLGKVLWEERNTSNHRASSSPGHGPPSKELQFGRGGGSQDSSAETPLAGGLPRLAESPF
Method: (§1) The ability of each peptide to induce cAMP was measured in a firefly luciferase-based reporter assay.
(§2) At the end of the incubation, 100 μL of LucLite luminescence substrate reagent (Perkin Elmer, Wellesley, Mass.) were added to each well. The plate was shaken briefly, incubated 10 min in the dark and light output was measured on MicroBeta-1450 liquid scintillation counter (Perkin-Elmer, Wellesley, Mass.).

[2] = target: T2, GLP-1 receptor (Homo sapiens, UniProt P43220); assay: cAMP induction, firefly luciferase reporter assay, GLP-1 receptor; type: cell-based; settings: for Activity at GLP-1 Receptor % Relative Activity: compared to native GLP-1
T2 construct: expressed in transfected cells; host or cells: HEK293
T2 sequence (P43220 24-463): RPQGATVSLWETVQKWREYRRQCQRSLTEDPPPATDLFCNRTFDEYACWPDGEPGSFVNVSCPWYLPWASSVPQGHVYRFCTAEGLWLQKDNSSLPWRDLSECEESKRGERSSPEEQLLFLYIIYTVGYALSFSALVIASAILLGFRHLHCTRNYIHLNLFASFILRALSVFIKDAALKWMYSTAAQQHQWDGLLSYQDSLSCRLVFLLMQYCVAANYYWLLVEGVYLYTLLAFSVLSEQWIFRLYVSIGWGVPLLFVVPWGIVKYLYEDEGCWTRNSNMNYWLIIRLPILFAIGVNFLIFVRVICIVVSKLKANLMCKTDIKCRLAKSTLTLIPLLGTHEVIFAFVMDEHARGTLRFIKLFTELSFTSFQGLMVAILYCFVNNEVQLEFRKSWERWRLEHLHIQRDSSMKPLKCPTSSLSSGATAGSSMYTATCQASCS
Method: as §1, §2

[3] = Activity at Glucagon Receptor EC50 [pM], Table 3A
[4] = Activity at GLP-1 Receptor EC50 [pM], Table 3A

With `CSCC[C@H](NC(=O)[C@H](CC(C)C)NC(=O)[C@H](Cc1c[nH]c2ccccc12)NC(=O)[C@H](CCC(N)=O)NC(=O)[C@@H](NC(=O)[C@H](Cc1ccccc1)NC(=O)[C@H](CCC(=O)O)NC(=O)[C@H](CCCCN)NC(=O)[C@H](C)NC(=O)[C@H](CCCNC(=N)N)NC(=O)[C@H](CCCCN)NC(=O)[C@H](CCC(=O)O)NC(=O)[C@H](CC(=O)O)NC(=O)[C@H](CC(C)C)NC(=O)[C@H](Cc1ccc(O)cc1)NC(=O)[C@H](CCCCN)NC(=O)[C@H](CO)NC(=O)[C@H](Cc1ccc(O)cc1)NC(=O)[C@H](CC(=O)O)NC(=O)[C@H](CO)NC(=O)[C@@H](NC(=O)[C@H](Cc1ccccc1)NC(=O)[C@@H](NC(=O)CNC(=O)[C@H](CCC(N)=O)NC(=O)[C@@H](CO)NC(=O)[C@@H](N)Cc1c[nH]cn1)[C@@H](C)O)[C@@H](C)O)C(C)C)C(=O)N[C@@H](CC(N)=O)C(=O)N[C@H](C(N)=O)[C@@H](C)O` [compound 20] the EC50 ([1]; Activity at Glucagon Receptor EC50 (nM), Table 2A) was 0.054 nM and the EC50 ([2]; Activity at GLP-1 Receptor EC50 (nM), Table 2A) was 0.284 nM.

In the case of `CSCC[C@H](NC(=O)[C@H](CC(C)C)NC(=O)[C@H](Cc1c[nH]c2ccccc12)NC(=O)[C@H](CCC(N)=O)NC(=O)[C@@H](NC(=O)[C@H](Cc1ccccc1)NC(=O)[C@H](CC(=O)O)NC(=O)[C@H](CCCCN)NC(=O)[C@H](C)NC(=O)[C@H](CCCNC(=N)N)NC(=O)[C@H](CCCNC(=N)N)NC(=O)[C@H](CCC(=O)O)NC(=O)[C@H](CC(=O)O)NC(=O)[C@H](CC(C)C)NC(=O)[C@H](Cc1ccc(O)cc1)NC(=O)[C@H](CCCCN)NC(=O)[C@H](CO)NC(=O)[C@H](Cc1ccc(O)cc1)NC(=O)[C@H](CC(=O)O)NC(=O)[C@H](CO)NC(=O)[C@@H](NC(=O)[C@H](Cc1ccccc1)NC(=O)[C@@H](NC(=O)CNC(=O)[C@H](CCC(N)=O)NC(=O)[C@H](CO)NC(=O)[C@@H](N)Cc1c[nH]cn1)[C@@H](C)O)[C@@H](C)O)C(C)C)C(=O)N[C@@H](CC(N)=O)C(=O)N[C@H](C(N)=O)[C@@H](C)O` [compound 67], the “Activity at Glucagon Receptor % Relative Activity” value ([1]; Table 2B) is reported as 93% and the “Activity at GLP-1 Receptor % Relative Activity” value ([2]; Table 2B) is reported as 47%.

For `CCCCCCCCCCCCCCCC(=O)N[C@@H](CCC(=O)N[C@@H](CCC(=O)NCCCC[C@H](NC(=O)[C@H](CC(=O)O)NC(=O)[C@H](CO)NC(=O)[C@@H](NC(=O)[C@H](Cc1ccccc1)NC(=O)[C@@H](NC(=O)CNC(=O)[C@H](CCC(N)=O)NC(=O)[C@@H](CO)NC(=O)[C@@H](N)Cc1c[nH]cn1)[C@@H](C)O)[C@@H](C)O)C(=O)N[C@@H](CO)C(=O)N[C@@H](CCCCN)C(=O)N[C@@H](Cc1ccc(O)cc1)C(=O)N[C@@H](CC(C)C)C(=O)N[C@@H](CC(=O)O)C(=O)NC(C)(C)C(=O)N[C@@H](CCCNC(=N)N)C(=O)N[C@@H](C)C(=O)N[C@@H](C)C(=O)N[C@@H](CCC(N)=O)C(=O)N[C@@H](CC(=O)O)C(=O)N[C@@H](Cc1ccccc1)C(=O)N[C@H](C(=O)N[C@@H](CCC(N)=O)C(=O)N[C@@H](Cc1c[nH]c2ccccc12)C(=O)N[C@@H](CC(C)C)C(=O)N[C@@H](CCSC)C(=O)N[C@@H](CC(=O)O)C(=O)N[C@H](C(N)=O)[C@@H](C)O)C(C)C)C(=O)O)C(=O)O` [compound 44] (H-H[dS]QGTFTSDK([γGlu-γGlu-Palmitoyl])SKYLD[Aib]RAAQDFVQWLMDT-NH2; N-terminus assumed), the “Activity at Glucagon Receptor % Relative Activity” value ([1]; Table 3A) was 661% and the “Activity at GLP-1 Receptor % Relative Activity” value ([2]; Table 3A) was 524%.

For `CCCCCCCCCCCCCCCC(=O)N[C@@H](CCC(=O)N[C@@H](CCC(=O)NCCCC[C@H](NC(=O)[C@H](CC(=O)O)NC(=O)[C@H](CO)NC(=O)[C@@H](NC(=O)[C@H](Cc1ccccc1)NC(=O)[C@@H](NC(=O)CNC(=O)[C@H](CCC(N)=O)NC(=O)C(C)(C)NC(=O)[C@@H](N)Cc1c[nH]cn1)[C@@H](C)O)[C@@H](C)O)C(=O)N[C@@H](CO)C(=O)N[C@@H](CCCCN)C(=O)N[C@@H](Cc1ccc(O)cc1)C(=O)N[C@@H](CC(C)C)C(=O)N[C@@H](CC(=O)O)C(=O)N[C@@H](CCC(=O)O)C(=O)N[C@@H](CCCNC(=N)N)C(=O)N[C@@H](C)C(=O)N[C@@H](C)C(=O)N[C@@H](CCC(N)=O)C(=O)N[C@@H](CC(=O)O)C(=O)N[C@@H](Cc1ccccc1)C(=O)N[C@H](C(=O)N[C@@H](CCC(N)=O)C(=O)N[C@@H](Cc1c[nH]c2ccccc12)C(=O)N[C@@H](CC(C)C)C(=O)N[C@@H](CCSC)C(=O)N[C@@H](CC(=O)O)C(=O)N[C@H](C(N)=O)[C@@H](C)O)C(C)C)C(=O)O)C(=O)O` [compound 50], the EC50 [1, 3] was 0.002 nM, the “Activity at Glucagon Receptor % Relative Activity” value ([1]; Table 3A) was 1000% and the EC50 [2, 4] was 0.005 nM. The “Activity at GLP-1 Receptor % Relative Activity” value ([2]; Table 3A) was 500%.

For `CCCCCCCCCCCCCCCC(=O)N[C@@H](CCC(=O)NCCCC[C@H](NC(=O)[C@H](CC(=O)O)NC(=O)[C@H](CO)NC(=O)[C@@H](NC(=O)[C@H](Cc1ccccc1)NC(=O)[C@@H](NC(=O)CNC(=O)[C@H](CCC(N)=O)NC(=O)[C@H](CO)NC(=O)C(C)(C)c1c[nH]cn1)[C@@H](C)O)[C@@H](C)O)C(=O)N[C@@H](CO)C(=O)N[C@@H](CCCCN)C(=O)N[C@@H](Cc1ccc(O)cc1)C(=O)N[C@@H](CC(C)C)C(=O)N[C@@H](CC(=O)O)C(=O)N[C@@H](CCC(=O)O)C(=O)N[C@@H](CCC(N)=O)C(=O)N[C@@H](C)C(=O)N[C@@H](C)C(=O)N[C@@H](CCCCN)C(=O)N[C@@H](CCC(=O)O)C(=O)N[C@@H](Cc1ccccc1)C(=O)N[C@H](C(=O)N[C@@H](CS)C(=O)N[C@@H](Cc1c[nH]c2ccccc12)C(=O)N[C@@H](CC(C)C)C(=O)N[C@@H](CC(C)C)C(=O)N[C@@H](CC(=O)O)C(=O)N[C@H](C(N)=O)[C@@H](C)O)[C@@H](C)CC)C(=O)O` [compound 54] ({Isobutyryl(2-imidazol-4-yl)}-SQGTFTSDK([γGlu-Palmitoyl])SKYLDEQAAKEFICWLLDT-NH2), the EC50 ([1]; Activity at Glucagon Receptor EC50 [nM], Table 5) was 0.107 nM, the “Activity at Glucagon Receptor % Relative Activity” value ([1]; Table 5) was 35% and the “Activity at GLP-1 Receptor % Relative Activity” value ([2]; Table 5) was 42%.

In the case of `CSCC[C@H](NC(=O)[C@H](CC(C)C)NC(=O)[C@H](Cc1c[nH]c2ccccc12)NC(=O)[C@H](CCC(N)=O)NC(=O)[C@@H](NC(=O)[C@H](Cc1ccccc1)NC(=O)[C@H](CCC(=O)O)NC(=O)[C@H](CCCCN)NC(=O)[C@H](C)NC(=O)[C@H](CCCNC(=N)N)NC(=O)[C@H](CCCCN)NC(=O)[C@H](CCC(=O)O)NC(=O)[C@H](CC(=O)O)NC(=O)[C@H](CC(C)C)NC(=O)[C@H](Cc1ccc(O)cc1)NC(=O)[C@H](CCCCN)NC(=O)[C@H](CO)NC(=O)[C@H](Cc1ccc(O)cc1)NC(=O)[C@H](CC(=O)O)NC(=O)[C@H](CO)NC(=O)[C@@H](NC(=O)[C@H](Cc1ccccc1)NC(=O)[C@@H](NC(=O)CNC(=O)[C@H](CCC(N)=O)NC(=O)[C@H](CO)NC(=O)[C@@H](N)Cc1c[nH]cn1)[C@@H](C)O)[C@@H](C)O)C(C)C)C(=O)N[C@@H](CC(N)=O)C(=O)N[C@H](C(N)=O)[C@@H](C)O` [compound 65], the “Activity at Glucagon Receptor % Relative Activity” value ([1]; Table 2B) is reported as 264% and the “Activity at GLP-1 Receptor % Relative Activity” value ([2]; Table 2B) is reported as 64%.

With `CCCCCCCCCCCCCCCC(=O)N[C@@H](CCC(=O)NCCCC[C@H](NC(=O)[C@H](CC(=O)O)NC(=O)[C@H](CO)NC(=O)[C@@H](NC(=O)[C@H](Cc1ccccc1)NC(=O)[C@@H](NC(=O)CNC(=O)[C@H](CCC(N)=O)NC(=O)[C@@H](CO)NC(=O)[C@@H](N)Cc1c[nH]cn1)[C@@H](C)O)[C@@H](C)O)C(=O)N[C@@H](CO)C(=O)N[C@@H](CCCCN)C(=O)N[C@@H](Cc1ccc(O)cc1)C(=O)N[C@@H](CC(C)C)C(=O)N[C@@H](CC(=O)O)C(=O)N[C@@H](CCC(=O)O)C(=O)N[C@@H](CCCNC(=N)N)C(=O)N[C@@H](C)C(=O)N[C@@H](C)C(=O)N[C@@H](CCC(N)=O)C(=O)N[C@@H](CC(=O)O)C(=O)N[C@@H](Cc1ccccc1)C(=O)N[C@H](C(=O)N[C@@H](CCC(N)=O)C(=O)N[C@@H](Cc1c[nH]c2ccccc12)C(=O)N[C@@H](CC(C)C)C(=O)N[C@@H](CC(C)C)C(=O)N[C@@H](CC(=O)O)C(=O)N[C@H](C(N)=O)[C@@H](C)O)C(C)C)C(=O)O` [compound 51] the EC50 ([1]; Activity at Glucagon Receptor EC50 [nM], Table 6) was 0.004 nM, the EC50 [1, 3] was 0.0035 nM and the “Activity at Glucagon Receptor % Relative Activity” value ([1]; Table 3A) was 314%. For the same molecule, the “Activity at Glucagon Receptor % Relative Activity” value ([1]; Table 6) was 314%, the EC50 ([2]; Activity at GLP-1 Receptor EC50 [nM], Table 6) was 0.004 nM and the EC50 [2, 4] was 0.0039 nM. The “Activity at GLP-1 Receptor % Relative Activity” value ([2]; Table 3A) was 949% and the “Activity at GLP-1 Receptor % Relative Activity” value ([2]; Table 6) was 949%.

For `CCCCCCCCCCCCCCCC(=O)NCCCC[C@H](NC(=O)[C@H](CC(=O)O)NC(=O)[C@H](CO)NC(=O)[C@@H](NC(=O)[C@H](Cc1ccccc1)NC(=O)[C@@H](NC(=O)CNC(=O)[C@H](CCC(N)=O)NC(=O)C(C)(C)NC(=O)[C@@H](N)Cc1c[nH]cn1)[C@@H](C)O)[C@@H](C)O)C(=O)N[C@@H](CO)C(=O)N[C@@H](CCCCN)C(=O)N[C@@H](Cc1ccc(O)cc1)C(=O)N[C@@H](CC(C)C)C(=O)N[C@@H](CC(=O)O)C(=O)NC(C)(C)C(=O)N[C@@H](CCCNC(=N)N)C(=O)N[C@@H](C)C(=O)N[C@@H](C)C(=O)N[C@@H](CCC(N)=O)C(=O)N[C@@H](CC(=O)O)C(=O)N[C@@H](Cc1ccccc1)C(=O)N[C@H](C(=O)N[C@@H](CCC(N)=O)C(=O)N[C@@H](Cc1c[nH]c2ccccc12)C(=O)N[C@@H](CC(C)C)C(=O)N[C@@H](CCSC)C(=O)N[C@@H](CC(=O)O)C(=O)N[C@H](C(N)=O)[C@@H](C)O)C(C)C` [compound 69] (H-H[Aib]QGTFTSDK(Palmitoyl)SKYLD[Aib]RAAQDFVQWLMDT-NH2; N-terminus assumed), the “Activity at Glucagon Receptor % Relative Activity” value ([1]; Table 3B) was 325%, the EC50 ([2]; Activity at GLP-1 Receptor EC50 [pM], Table 3B) was 0.005 nM and the “Activity at GLP-1 Receptor % Relative Activity” value ([2]; Table 3B) was 440%.
